Data reported in ChEMBL document CHEMBL1151632, “15-Deacetylsergeolide, a potent antileukemic quassinoid from Picrolemma pseudocoffea” (1984).

Legend:
[1] = system: P388; assay: In vivo cytotoxicity against mouse P388 cells at 0.63 mg/kg relative to control; assay type: functional
[2] = system: P388; assay: In vivo cytotoxicity against mouse P388 cells at 1.25 mg/kg relative to control; assay type: functional

`COC(=O)[C@]12OC[C@]34[C@H]([C@@H](O)[C@@H]1O)[C@@]1(C)C=C5OC(=O)C=C5[C@@H](C)[C@@H]1C[C@H]3OC(=O)[C@H](O)[C@@H]24` [DEACETYLSERGEOLIDE] was tested, and the T/C [1] was 150%.

In the case of `COC(=O)[C@]12OC[C@]34[C@H]([C@@H](O)[C@@H]1O)[C@@]1(C)C=C5OC(=O)C=C5[C@@H](C)[C@@H]1C[C@H]3OC(=O)[C@H](OC(C)=O)[C@@H]24` [SERGEOLIDE], the T/C [2] is reported as 169%.
